Data on three compounds can be found in US20230310368A1, “MDMA ENANTIOMERS” (Mind Medicine, Inc., priority 2021, published 2023).

In series [1] the test system is Fmr1 KO mice. The series can be described thus: Three-Chamber Social Interaction Test (TCSIT). The format is in vivo, mouse. The procedure:
(§1) Methods. The study was conducted in 10-week-old male Fmr1 KO mice. Animals were dosed per os with vehicle, R(−)-MDMA (8, 17 and 30 mg/kg) or SR-MDMA (8 mg/kg) with a minimum 3-day washout between doses. […] Compounds were administered 30 minutes prior to each behavioral test. Basic statistical analysis was performed. If more than 2 groups were compared with each other, significance was calculated by One-way or Two-way analysis of variance (ANOVA) followed by the Bonferroni post hoc test. In case of non-normally distributed data, significance was calculated by Kruskal-Wallis test followed by Dunn's multiple comparisons test.
To measure sociability, animals were tested in the Three Chamber Social Interaction Test. It consisted of a habituation phase, an approach phase and a recognition phase (FIG. 5).
On the testing day, the test animal was placed in the center of the box and was allowed to explore it for ten minutes with two empty stranger mouse cylinders on each side of the box for habituation.
Social approach: After habituation, the mouse was removed from the box, the box was cleaned with 70% Isopropanol and dried with a hand fan. A sex-matched stranger mouse was placed into the mouse cylinder in the left chamber and the test animal was placed in the center of the box again for ten minutes.
Social recognition: After the social approach, mice were immediately tested for social recognition. The already known mouse stayed in the left chamber and a new mouse was placed under the cylinder in the right chamber. The test mouse was again placed in the middle chamber and, for 10 minutes, it was measured how much time it spent in each chamber and how much time it spent sniffing each mouse. Healthy mice will spend more time with the new mouse due to novelty. Socially disturbed mice might not recognize the already known mouse and spend therefore similar amounts of time with each mouse.
Both social approach and social recognition were recorded and analyzed by using Noldus Ethovision 8.5.
(§2) Methods. The study was conducted in 96 10-week-old male Fmr1 KO mice. Animals were dosed orally with vehicle, R(−)-3,4-MDMA (8, 17 and 30 mg/kg), S-(+)-3,4-MDMA (8 mg/kg) or (±)-3,4-MDMA (8 mg/kg) with a minimum 3-day washout between doses. In the Three-Chamber Social Interaction Test (TCSIT), a stranger animal was placed in one of two wire cylinders in the testing area. The time spent in each of three arenas: the neutral arena, the stranger arena or the empty arena, was assessed (FIG. 5). Animals were evaluated in the Open Field Test (OFT) measuring hyperactivity, locomotor activity, thigmotaxis and grooming duration (FIGS. 7A-7B). In the Ultrasonic Vocalization (USV) test, male mice were exposed to fresh urine from females in the estrous cycle. Vocal emissions were recorded for 5 minutes and analyzed. Compounds were administered 30 minutes before each behavioral test. Significance was calculated by One-way analysis of variance followed by the Bonferroni post hoc test. In non-normally distributed data, Kruskal-Wallis test followed by Dunn's multiple comparisons test was applied.

The subject of series [2] is Fmr1 KO mice. Put plainly: Ultrasonic Vocalization (USV) test. The format is in vivo, mouse. The following applies: any dose, oral, 5 minutes recording, P<0.001. The protocol:
as §1
Adult male mice emit Ultrasonic Vocalization (USV) under selected experimental conditions, upon encountering a sexually receptive female or female urine. These vocal emissions are considered an index of emotionality, social interest, and motivation.
To induce the estrous cycle in female mice, mice were subcutaneously treated with 50 μl of ß-estradiol 48 hours prior to testing (time sensitive). […]
On the test day, study animals were habituated in a separate soundproof room. Before recording, each mouse was separated from its home cage, placed in another cage that was covered with fresh bedding, and moved to the next soundproof room equipped with an UltraSoundGate Condenser Microphone (CM16; Avisoft Bioacoustics, Berlin, Germany), connected via an Avisoft UltraSoundGate 416 USB Audio device (Avisoft Bioacoustics) to a personal computer, where acoustic data were recorded with a sampling rate of 250,000 Hz in 16-bit format. […] Vocal emission was recorded for 5 minutes.
For acoustical analysis, recordings were transferred to SASLab Pro (Avisoft Bioacoustics) and a fast Fourier transform was conducted (512 FFT length, 100% frame, Hamming window, and 75% time window overlap). […] The total number of vocalizations and the latency to initiate the first call were extracted and evaluated for the whole 5 minutes of recording.
Methods. […] The time spent in each of three arenas: the neutral arena, the stranger arena or the empty arena, was assessed (FIG. 5). […]

The conditions of series [3]: background, limited pre-clinical evidence; cited from earlier work.
Series [4] concerns Fmr1 KO mice. The series can be described thus: Open Field Test (OFT) including grooming evaluation. The class given is in vivo, mouse. The protocol: as §1
Spontaneous activity and anxiety was assessed in the Open Field by evaluating the following parameters: hyperactivity [s], activity [s], distance [m], rearings [s], rearings [n] and grooming behavior. For that purpose, a Plexiglas Open Field (48×48 cm) in combination with a computerized video tracking system (Noldus Ethovision XT 14) was used (FIGS. 7A-7B).
The mice were brought to the room at least 45 minutes before the start of the testing. Each test session lasted for 5 minutes to check the mice's behavior in the new surroundings, as the first minutes of the Open Field test are the most suitable to display the exploration behavior of the animals. After the testing session, the number of fecal boluses was counted, as a measure of emotionality. The Open Field was cleaned with 70% Isopropanol after each mouse to get rid of odor traces. Testing was performed under standard room lighting conditions during the light phase of the circadian cycle.
as §2

A further series concerns dopamine. The conditions noted are these: background, receptor studies and limited pre-clinical evidence; cited from earlier work.
Setting [5] is: oral, 30 minutes before test, R compared to S or racemate P<0.001.

SMILES strings stand for the structures. “Also recorded” adds a separate entry of the source.

As for `CNC(C)Cc1ccc2c(c1)OCO2` (racemic) [(±)-3,4-MDMA, S,R(±)-3,4-methylenedioxymethamphetamine], in the series with Fmr1 KO mice [1] (8 mg/kg oral), the “Arena Frequency with the stranger” value is recorded as “no effect”; the “Interaction Duration with the stranger” value is reported as “no effect”; the “Interaction Index with the stranger” value is recorded as “no effect”; the “interaction with the stranger and empty chamber vs. vehicle-treated animals” value is given as “efficacious only for interaction with the stranger”. Also, the number of vocalizations entry in the series on Fmr1 KO mice [2] is given as “significantly reduced”.
In the case of `CN[C@@H](C)Cc1ccc2c(c1)OCO2` [S-(+)-3,4-MDMA], in the series with Fmr1 KO mice [1] (8 mg/kg oral), the “Arena Frequency with the stranger” value is on record as “no effect”; the “Interaction Duration with the stranger” value was “no effect”; the “Interaction Index with the stranger” value is recorded as “no effect”; the “interaction with the stranger and empty chamber vs. vehicle-treated animals” value is recorded as “not associated with significant changes”. The number of vocalizations result in the series on Fmr1 KO mice [2] was “significantly reduced”.
As to `CN[C@H](C)Cc1ccc2c(c1)OCO2` [R(−)-3,4-MDMA, R(−)-3,4-methylenedioxymethamphetamine], in the series with Fmr1 KO mice [1] (30 mg/kg oral, P<0.001), the “Arena Frequency with the stranger” value is “statistically significant”. In the series with Fmr1 KO mice [1] (all three doses (8, 17 and 30 mg/kg) oral, P<0.01), the “interaction with the stranger and empty chamber vs. vehicle-treated animals” value was “significant difference”. Moreover, the “effect on social interaction compared with S-(+)-3,4-MDMA or (±)-3,4-MDMA” value in the series with Fmr1 KO mice [1] (conclusion of the study) is given as “more potent”. The “social approach and interaction” value in the series on Fmr1 KO mice [1] (male Fmr1 KO mice, oral 8, 17 and 30 mg/kg, 30 minutes before test) is “dose-dependently increased”. Moreover, the number of vocalizations entry with Fmr1 KO mice [2] is given as “significantly reduced”. The hyperthermia result in series [3] was “does not produce hyperthermia”. Moreover, the “number of grooming occasions” value with Fmr1 KO mice [4] (30 mg/kg oral) was “active”; in the series with Fmr1 KO mice [4] (oral, R 8, 17, 30 mg/kg, S and racemate 8 mg/kg), “less efficacious than S-(+)-3,4-MDMA or (±)-3,4-MDMA”. In the series on Fmr1 KO mice [4] (setting [5]), the distance moved entry was “significantly lesser effect”. The hyperactivity result with Fmr1 KO mice [4] (setting [5]) is given as “significantly lesser effect; also recorded: significantly reduced hyperactivity effects”. Further, the “efficacy as a releaser of dopamine” value in the series with dopamine is “low efficacy”.
